According to ChEMBL document CHEMBL4613266, “Discovery and Structure Relationships of Salicylanilide Derivatives as Potent, Non-acidic P2X1 Receptor Antagonists” (J Med Chem, 2020):
pIC50: −log10 of the molar value.

Legend:
P2X purinoceptor 1 [1] = biological target: T1, P2X purinoceptor 1 (Rattus norvegicus, UniProt P47824); test: Antagonist activity at rat P2X1 receptor
T1 sequence (P47824 whole entry): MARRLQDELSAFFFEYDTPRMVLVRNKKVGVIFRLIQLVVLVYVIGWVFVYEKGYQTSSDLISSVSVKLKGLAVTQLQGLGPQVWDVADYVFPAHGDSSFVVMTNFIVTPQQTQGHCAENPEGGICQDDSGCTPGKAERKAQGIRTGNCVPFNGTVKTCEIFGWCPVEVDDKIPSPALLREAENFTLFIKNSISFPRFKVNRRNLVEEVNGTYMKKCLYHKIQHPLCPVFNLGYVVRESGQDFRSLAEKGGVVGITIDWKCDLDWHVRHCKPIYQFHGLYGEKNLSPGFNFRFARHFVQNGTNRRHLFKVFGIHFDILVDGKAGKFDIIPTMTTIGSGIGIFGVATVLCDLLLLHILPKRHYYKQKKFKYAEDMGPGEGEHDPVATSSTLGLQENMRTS

[2] = biological target: T2, P2X purinoceptor 1 (Homo sapiens) (UniProt P51575); test: Antagonist activity P2X1 receptor in Apyrase pre-treated human platelets assessed as inhibition of TRAP6-induced platelet aggregation pre-incubated for 30 mins before TRAP6 stimulation by aggregometry relative to control; type: cell-based
T2 sequence (whole entry): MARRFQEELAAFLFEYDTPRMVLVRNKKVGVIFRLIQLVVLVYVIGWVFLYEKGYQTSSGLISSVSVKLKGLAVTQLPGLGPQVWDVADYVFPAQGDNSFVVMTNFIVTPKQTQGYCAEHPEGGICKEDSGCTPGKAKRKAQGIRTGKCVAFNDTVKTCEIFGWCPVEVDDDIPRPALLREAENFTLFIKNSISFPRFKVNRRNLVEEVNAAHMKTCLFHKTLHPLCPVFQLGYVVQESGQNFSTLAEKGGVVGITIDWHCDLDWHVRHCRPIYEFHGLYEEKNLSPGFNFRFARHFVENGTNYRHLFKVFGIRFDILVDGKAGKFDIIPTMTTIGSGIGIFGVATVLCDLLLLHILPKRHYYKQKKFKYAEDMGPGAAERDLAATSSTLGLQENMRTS

P2X purinoceptor 2 = biological target: T3, P2X purinoceptor 2 (Homo sapiens, UniProt Q9UBL9); test: Antagonist activity at human P2X2 receptor expressed in human 1321N1 cells assessed as inhibition of ATP-induced cytosolic calcium influx preincubated for 30 mins followed by ATP addition by Fluo-4 AM dye-based fluorescence assay; type: cell-based
T3 sequence (Q9UBL9 whole entry): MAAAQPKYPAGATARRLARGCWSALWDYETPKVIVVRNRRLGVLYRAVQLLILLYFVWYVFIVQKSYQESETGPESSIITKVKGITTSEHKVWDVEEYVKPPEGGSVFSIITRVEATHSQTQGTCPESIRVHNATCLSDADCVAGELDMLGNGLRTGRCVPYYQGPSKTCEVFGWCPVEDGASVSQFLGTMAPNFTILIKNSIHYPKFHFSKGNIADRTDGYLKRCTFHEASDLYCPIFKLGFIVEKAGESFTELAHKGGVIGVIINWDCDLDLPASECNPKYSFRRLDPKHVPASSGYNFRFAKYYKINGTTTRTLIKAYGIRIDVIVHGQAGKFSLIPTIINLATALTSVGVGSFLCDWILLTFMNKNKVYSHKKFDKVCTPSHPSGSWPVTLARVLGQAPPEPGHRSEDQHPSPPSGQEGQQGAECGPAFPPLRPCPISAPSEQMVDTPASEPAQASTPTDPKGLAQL

[3] = biological target: T2, P2X purinoceptor 1 (Homo sapiens); test: Antagonist activity P2X1 receptor in human platelets assessed as inhibition of ADP-induced platelet aggregation pre-incubated for 30 mins before ADP stimulation by aggregometry relative to control; type: cell-based
P2X purinoceptor 3 = biological target: T4, P2X purinoceptor 3 (Homo sapiens, UniProt P56373); test: Antagonist activity at human P2X3 receptor expressed in human 1321N1 cells assessed as inhibition of ATP-induced cytosolic calcium influx preincubated for 30 mins followed by ATP addition by Fluo-4 AM dye-based fluorescence assay; type: cell-based
T4 sequence (P56373 whole entry): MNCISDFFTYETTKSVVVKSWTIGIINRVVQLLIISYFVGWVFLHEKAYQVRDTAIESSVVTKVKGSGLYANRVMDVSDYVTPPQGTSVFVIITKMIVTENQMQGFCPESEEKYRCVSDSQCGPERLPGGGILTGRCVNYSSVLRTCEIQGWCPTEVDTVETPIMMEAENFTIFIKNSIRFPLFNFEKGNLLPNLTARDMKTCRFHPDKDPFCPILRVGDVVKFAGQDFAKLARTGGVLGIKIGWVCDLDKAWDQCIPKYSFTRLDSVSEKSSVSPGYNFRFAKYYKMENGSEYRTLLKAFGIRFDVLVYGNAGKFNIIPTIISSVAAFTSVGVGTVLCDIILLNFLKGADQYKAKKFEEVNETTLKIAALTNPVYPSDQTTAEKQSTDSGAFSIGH

[4] = biological target: T5, P2X purinoceptor 2 (Homo sapiens) (UniProt Q9UBL9); test: Antagonist activity at human P2X2 receptor expressed in human 1321N1 cells assessed as inhibition of ATP-induced cytosolic calcium influx at 10 uM preincubated for 30 mins followed by ATP addition by Fluo-4 AM dye-based fluorescence assay relative to control; type: cell-based
T5 sequence (whole entry): T3 sequence (Q9UBL9 whole entry)

P2X purinoceptor 7 = biological target: T6, P2X purinoceptor 7 (Homo sapiens, UniProt Q99572); test: Antagonist activity at human P2X7 receptor expressed in human 1321N1 cells assessed as inhibition of ATP-induced cytosolic calcium influx preincubated for 30 mins followed by ATP addition by Fluo-4 AM dye-based fluorescence assay; type: cell-based
T6 sequence (Q99572 whole entry): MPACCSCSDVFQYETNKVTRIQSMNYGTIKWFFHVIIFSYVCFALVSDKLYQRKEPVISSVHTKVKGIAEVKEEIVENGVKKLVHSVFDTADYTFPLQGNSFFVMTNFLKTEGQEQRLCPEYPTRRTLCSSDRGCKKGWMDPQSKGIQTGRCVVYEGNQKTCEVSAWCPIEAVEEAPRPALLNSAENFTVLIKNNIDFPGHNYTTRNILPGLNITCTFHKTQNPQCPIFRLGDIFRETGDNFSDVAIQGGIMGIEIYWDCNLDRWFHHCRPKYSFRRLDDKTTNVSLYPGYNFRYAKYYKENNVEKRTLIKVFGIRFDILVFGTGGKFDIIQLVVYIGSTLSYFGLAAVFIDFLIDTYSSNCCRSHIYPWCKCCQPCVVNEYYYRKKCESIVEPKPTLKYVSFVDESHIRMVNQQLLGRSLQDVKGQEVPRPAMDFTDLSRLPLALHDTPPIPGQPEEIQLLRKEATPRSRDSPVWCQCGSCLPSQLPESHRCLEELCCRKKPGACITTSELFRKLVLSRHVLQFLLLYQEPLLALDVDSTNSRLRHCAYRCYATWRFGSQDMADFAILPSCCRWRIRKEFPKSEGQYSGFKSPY

[5] = biological target: T7, P2X purinoceptor 3 (Homo sapiens) (UniProt P56373); test: Antagonist activity at human P2X3 receptor expressed in human 1321N1 cells assessed as inhibition of ATP-induced cytosolic calcium influx at 10 uM preincubated for 30 mins followed by ATP addition by Fluo-4 AM dye-based fluorescence assay relative to control; type: cell-based
T7 sequence (whole entry): T4 sequence (P56373 whole entry)

[6] = biological target: T2, P2X purinoceptor 1 (Homo sapiens); test: Antagonist activity at non-desensitizing human P2X1 receptor ( P2X2/P2X1 chimera) expressed in human 1321N1 cells assessed as inhibition of ATP-induced calcium influx at 10 uM pre-incubated for 30 mins before ATP stimulation by FLIPR assay relative to control; type: cell-based
P2X purinoceptor 4 = biological target: T8, P2X purinoceptor 4 (Homo sapiens, UniProt Q99571); test: Antagonist activity at human P2X4 receptor expressed in human 1321N1 cells assessed as inhibition of ATP-induced cytosolic calcium influx preincubated for 30 mins followed by ATP addition by Fluo-4 AM dye-based fluorescence assay; type: cell-based
T8 sequence (Q99571 whole entry): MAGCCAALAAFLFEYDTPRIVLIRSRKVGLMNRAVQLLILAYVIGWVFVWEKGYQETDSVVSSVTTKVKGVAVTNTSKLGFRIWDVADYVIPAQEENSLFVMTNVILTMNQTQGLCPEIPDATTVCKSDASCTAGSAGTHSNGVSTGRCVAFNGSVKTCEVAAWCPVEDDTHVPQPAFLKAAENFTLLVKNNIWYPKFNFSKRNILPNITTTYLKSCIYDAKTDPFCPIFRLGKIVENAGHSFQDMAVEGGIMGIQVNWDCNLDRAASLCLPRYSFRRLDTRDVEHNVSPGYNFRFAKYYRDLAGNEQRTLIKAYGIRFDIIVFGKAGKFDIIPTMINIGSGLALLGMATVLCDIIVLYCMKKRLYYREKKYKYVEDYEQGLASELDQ

P2X purinoceptor 1 [7] = biological target: P2X purinoceptor 1 (Homo sapiens, UniProt P51575); test: Antagonist activity at non-desensitizing human P2X1 receptor ( P2X2/P2X1 chimera) expressed in human 1321N1 cells assessed as inhibition of ATP-induced calcium influx pre-incubated for 30 mins before ATP stimulation by FLIPR assay relative to control; type: cell-based
[8] = biological target: T2, P2X purinoceptor 1 (Homo sapiens); test: Antagonist activity at non-desensitizing human P2X1 receptor ( P2X2/P2X1 chimera) expressed in human 1321N1 cells assessed as inhibition of ATP-induced calcium influx at 1 uM pre-incubated for 30 mins before ATP stimulation by FLIPR assay relative to control; type: cell-based
[9] = biological target: T2, P2X purinoceptor 1 (Homo sapiens); test: Antagonist activity P2X1 receptor in Apyrase pre-treated human platelets assessed as inhibition of collagen-induced platelet aggregation pre-incubated for 30 mins before collagen stimulation by aggregometry relative to control; type: cell-based
[10] = biological target: T2, P2X purinoceptor 1 (Homo sapiens); test: Antagonist activity at non-desensitizing human P2X1 receptor ( P2X2/P2X1 chimera) expressed in human 1321N1 cells assessed as inhibition of ATP-induced calcium influx at 100 uM pre-incubated for 30 mins before ATP stimulation by FLIPR assay relative to control; type: cell-based

SMILES	pIC50 (P2X purinoceptor 1 [1])	inhibition [2]	pIC50 (P2X purinoceptor 2)	inhibition [3]	pIC50 (P2X purinoceptor 3)	inhibition [4]	pIC50 (P2X purinoceptor 7)	inhibition [5]	pIC50 (P2X purinoceptor 4)	inhibition [9]	inhibition [6]	pIC50 (P2X purinoceptor 1 [7])	inhibition [8]	inhibition [10]
COc1ccc(Cl)cc1C(=O)Nc1cc(C(F)(F)F)cc(C(F)(F)F)c1												< 6.00	17%	
O=C(Nc1ccc(C(F)(F)F)cc1)c1cc(Cl)ccc1O		6%		23%		3%		-6%		7%	53%			
O=C(Nc1cccc(OC(F)(F)F)c1)c1cc(Cl)ccc1O												5.12		100%
O=C(Nc1cc(C(F)(F)F)cc(C(F)(F)F)c1)c1ccc(Cl)cc1O			< 5.00		< 5.00	-5%	6.71	2%	6.68		59%	7.64		

Second part, led by results:

pIC50 (P2X purinoceptor 1 [1])	inhibition [2]	pIC50 (P2X purinoceptor 2)	inhibition [3]	pIC50 (P2X purinoceptor 3)	inhibition [4]	pIC50 (P2X purinoceptor 7)	inhibition [5]	pIC50 (P2X purinoceptor 4)	inhibition [9]	SMILES	inhibition [6]	pIC50 (P2X purinoceptor 1 [7])	inhibition [8]	inhibition [10]
6.00										Cc1nc(/N=N/c2ccc(S(=O)(=O)O)cc2S(=O)(=O)O)c(COP(=O)(O)O)c(C=O)c1O				
	13%	< 5.00	26%	< 5.00	-5%	7.15	5%	6.15		O=C(Nc1cc(Cl)cc(Cl)c1)c1cc(Cl)ccc1O	56%	7.53		
		< 5.00		< 5.00	5%	6.84	16%	7.37		O=C(Nc1cc([N+](=O)[O-])cc(C(F)(F)F)c1)c1cc(Cl)ccc1O	81%	7.50		
9.55										O=C(Nc1cc(C(=O)Nc2ccc(S(=O)(=O)O)cc2S(=O)(=O)O)cc(C(=O)Nc2ccc(S(=O)(=O)O)cc2S(=O)(=O)O)c1)Nc1cc(C(=O)Nc2ccc(S(=O)(=O)O)cc2S(=O)(=O)O)cc(C(=O)Nc2ccc(S(=O)(=O)O)cc2S(=O)(=O)O)c1	100%			
		< 5.00		< 5.00	15%	6.50	30%	6.81		O=C(Nc1cc(C(F)(F)F)cc(C(F)(F)F)c1)c1ccccc1O	79%	7.11		
5.77 to 6.00										Cc1ccc(C(=O)Nc2ccc(S(=O)(=O)O)c3cc(S(=O)(=O)O)cc(S(=O)(=O)O)c23)cc1NC(=O)c1cccc(NC(=O)Nc2cccc(C(=O)Nc3cc(C(=O)Nc4ccc(S(=O)(=O)O)c5cc(S(=O)(=O)O)cc(S(=O)(=O)O)c45)ccc3C)c2)c1 [SURAMIN]	> 90%		> 40%	
